Each molecule was assayed against T1, human CGT (Homo sapiens, UniProt Q16880) (assay: Assay 1: CGT Enzymatic Assay (RapidFire/MS/MS, 0.01% Tween 80)). Conditions: Table 1, Compounds of Formula (I) and Formula (II); CGT enzymatic assay, C6-NBD-dihydro-galactosylceramide readout; read-out: IC50.
T1 sequence (Q16880 21-541): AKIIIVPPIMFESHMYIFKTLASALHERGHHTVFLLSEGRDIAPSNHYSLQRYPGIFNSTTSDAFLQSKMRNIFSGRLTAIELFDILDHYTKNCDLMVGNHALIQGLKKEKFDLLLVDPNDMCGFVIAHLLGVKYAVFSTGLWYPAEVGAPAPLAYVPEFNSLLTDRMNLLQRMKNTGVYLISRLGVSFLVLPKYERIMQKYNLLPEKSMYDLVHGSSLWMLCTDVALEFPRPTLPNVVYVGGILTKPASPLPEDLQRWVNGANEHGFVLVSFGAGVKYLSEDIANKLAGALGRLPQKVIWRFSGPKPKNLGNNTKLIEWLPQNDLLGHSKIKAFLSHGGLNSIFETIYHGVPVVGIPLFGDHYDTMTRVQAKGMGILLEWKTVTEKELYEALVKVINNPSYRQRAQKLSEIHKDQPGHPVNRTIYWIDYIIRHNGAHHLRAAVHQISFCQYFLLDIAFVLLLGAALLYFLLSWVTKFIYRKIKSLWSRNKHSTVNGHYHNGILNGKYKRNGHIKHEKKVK
Type: biochemical
Molecule COc1ccc(N2C(=O)N(c3ccc(OC)cc3)C(O)(c3cccc(C#N)c3)C2(C)C)cc1 (stereo not drawn) [Example 328, 3-(4-hydroxy-1,3-bis(4-methoxyphenyl)-5,5-dimethyl-2-oxoimidazolidin-4-yl)benzonitrile] has an IC50 of 1 to 10 µM. In the case of COc1ccc(N2C(=O)N(c3ccc(OC)cc3)C(O)(c3cccc(OC(F)(F)F)c3)[C@@H]2C(C)C)cc1 (stereo partly drawn) [Example 329-1, (5S)-4-hydroxy-5-isopropyl-1,3-bis(4-methoxyphenyl)-4-(3-(trifluoromethoxy)phenyl)imidazolidin-2-one], the IC50 is reported as 1 to 10 µM. COc1ccc(N2C(=O)N(c3ccc(OC)cc3)C(O)(c3cccc(OC(F)(F)F)c3)[C@H]2C(C)C)cc1 (stereo partly drawn) [Example 329-2, (5R)-4-hydroxy-5-isopropyl-1,3-bis(4-methoxyphenyl)-4-(3-(trifluoromethoxy)phenyl)imidazolidin-2-one] was tested, and the IC50 was under 1 µM. For COc1ccc(N2C(=O)N(c3ccc(OC)cc3)C(O)(c3cccc(C#N)c3)C2C(C)C)cc1 (stereo not drawn) [Example 330, 3-(4-hydroxy-5-isopropyl-1,3-bis(4-methoxyphenyl)-2-oxoimidazolidin-4-yl)benzonitrile], the IC50 was under 1 µM. With C[C@]1(C(F)(F)F)N(c2ccc(Cl)cc2)C(=O)N(c2ccc(Cl)cc2)C1(O)c1cc(C#N)cc(C#N)c1 (stereo partly drawn) [Example 331-1, 5-((5S)-1,3-bis(4-chlorophenyl)-4-hydroxy-5-methyl-2-oxo-5-(trifluoromethyl)imidazolidin-4-yl)isophthalonitrile] the IC50 was under 1 µM. With C[C@@]1(C(F)(F)F)N(c2ccc(Cl)cc2)C(=O)N(c2ccc(Cl)cc2)C1(O)c1cc(C#N)cc(C#N)c1 (stereo partly drawn) [Example 331-2, 5-((5R)-1,3-bis(4-chlorophenyl)-4-hydroxy-5-methyl-2-oxo-5-(trifluoromethyl)imidazolidin-4-yl)isophthalonitrile] the IC50 was under 1 µM. For O=C1N(c2ccc(Cl)cc2)C2(CCC2)C(O)(c2cccc(OC(F)(F)F)c2)N1c1ccccc1 (stereo not drawn) [Example 332, 5-(4-chlorophenyl)-8-hydroxy-7-phenyl-8-(3-(trifluoromethoxy)phenyl)-5,7-diazaspiro[3.4]octan-6-one], the IC50 was under 1 µM. Cc1ccc(N2C(=O)N(c3ccc(Cl)cc3)C3(CCC3)C2(O)c2cccc(OC(F)(F)F)c2)cc1 (stereo not drawn) [Example 333, 5-(4-chlorophenyl)-8-hydroxy-7-(p-tolyl)-8-(3-(trifluoromethoxy)phenyl)-5,7-diazaspiro[3.4]octan-6-one] was tested, and the IC50 was under 1 µM. O=C1N(c2ccccc2)C2(CCC2)C(O)(c2cccc(OC(F)(F)F)c2)N1c1ccc(Cl)cc1 (stereo not drawn) [Example 334, 7-(4-chlorophenyl)-8-hydroxy-5-phenyl-8-(3-(trifluoromethoxy)phenyl)-5,7-diazaspiro[3.4]octan-6-one] was tested, and the IC50 was under 1 µM. N#Cc1ccc(N2C(=O)N(c3ccccc3)C3(CCC3)C2(O)c2cccc(OC(F)(F)F)c2)cc1 (stereo not drawn) [Example 335, 4-(8-hydroxy-6-oxo-5-phenyl-8-(3-(trifluoromethoxy)phenyl)-5,7-diazaspiro[3.4]octan-7-yl)benzonitrile] showed an IC50 of under 1 µM. N#Cc1ccc(N2C(=O)N(c3ccccc3)C(O)(c3cccc(OC(F)(F)F)c3)C23CCC3)cc1 (stereo not drawn) [Example 336, 4-(8-hydroxy-6-oxo-7-phenyl-8-(3-(trifluoromethoxy)phenyl)-5,7-diazaspiro[3.4]octan-5-yl)benzonitrile] was tested, and the IC50 was under 1 µM. CCc1ccc(N2C(=O)N(c3ccc(C#N)cc3)C3(COC3)C2(O)c2cccc(OC(F)(F)F)c2)cc1 (stereo not drawn) [Example 337, 4-(7-(4-ethylphenyl)-8-hydroxy-6-oxo-8-(3-(trifluoromethoxy)phenyl)-2-oxa-5,7-diazaspiro[3.4]octan-5-yl)benzonitrile] gave an IC50 of under 1 µM.

Each molecule was assayed against T1, human CGT (assay: CGT Enzyme Assay (Biological Example 2, RapidFire/MS/MS method with 0.01% Tween 80 added)). Conditions: enzymatic assay, CHO/CGT lysate.
Type: biochemical
Procedure: Full-length human CGT cDNA was cloned into the BamH1/Xho1 site of pcDNA3.1 (+) mammalian expression vector (V90-20, Invitrogen, Carlsbad, Calif.) and the plasmid was transfected into Chinese hamster ovary (CHO) cells. Lysate was prepared using M-PER (Mammalian Protein Extraction Reagent, ThermoFisher Scientific, Grand Island, N.Y.) in the presence of a protease inhibitor cocktail (P8340, Sigma, Saint Louis, Mo.). Each 100 mm dish (100% confluent, approximately 1×10^7 cells) was lysed with 250 μL of M-PER containing protease inhibitors. Protein concentration was determined using a Pierce BCA protein assay kit (ThermoFisher Scientific). […] The final concentration of DMSO was 0.5% in both compound-treated and mock-treated samples. Each individual reaction was diluted with 80 μL of methanol:acetronitrile (1:3) containing 5 μM N-docdecanoyl-NBD-galactosylceramide (internal standard) to stop the reaction. 200 μL H2O:acetonitile (1:1) was added to precipitate the protein. After sufficient mixing, the plates were centrifuged at 2469 g for 38 minutes, 200 μl of supernatant was transferred to a LC-MS 96-deep well plate and a second spin was performed at 2469 g for 10 minutes. The final supernatant was injected in triplicate for RapidFire/MS/MS analysis.
The quantitative analysis of C6-NBD-dihydro-ceramide and C6-NBD-dihydro-galactosylceramide was performed on a Rapid Fire 360 high-throughput mass spectrometry system (Agilent Technologies, Palo Alto, Calif.) coupled with a API4000^+ triple quadrupole mass spectrometer (Applied Biosystems, Concord, Ontario, Canada). RapidFire software packages, including RapidFire Control panel, RapidFire UI and RapidFire Integrator (Agilent Technologies), were used to control the RapidFire instrument and to process data. Analyst 1.6.2 software packages (Applied Biosystems) were used to control the MS system and acquire MS data. 10 μL of sample was loaded on a micro-scale C4 solid-phase extraction (SPE) cartridge (Agilent Technologies) and salts were removed using water supplemented with 0.1% formic acid at the flow rate of 1.5 mL/min for 3 sec. C6-NBD-dihydro-ceramide and C6-NBD-dihydro-galactosylceramide were co-eluted into the mass spectrometer using acetonitrile containing 0.1% formic acid at the flow rate of 1.0 mL/min for 3 sec. The total cycle time of one injection was 8 secs. The MS/MS detection was performed in ESI negative mode.
The C6-NBD-dihydro-galactosylceramide reading was normalized first by dividing the peak area of C6-NBD-dihydro-galactosylceramide by the peak area of the internal standard, N-docdecanoyl-NBD-galactosylceramide.
O=C1N(c2ccc(Br)cc2)C2CCCCC2N1c1ccc(Br)cc1 (stereo not drawn) [Example 1] showed an IC50 of 30 to 100 µM. C[C@H]1[C@H](c2ccccc2)N(c2ccc(Br)cc2)C(=O)N1c1ccc(Br)cc1 [Example 2-1, (4S,5S)-1,3-bis(4-bromophenyl)-4-methyl-5-phenylimidazolidin-2-one] gave an IC50 of 30 to 100 µM. Work on C[C@@H]1[C@@H](c2ccccc2)N(c2ccc(Br)cc2)C(=O)N1c1ccc(Br)cc1 [Example 2-2, (4R,5R)-1,3-bis(4-bromophenyl)-4-methyl-5-phenylimidazolidin-2-one] yielded an IC50 of under 1 µM. Molecule C[C@H]1[C@@H](c2ccccc2)N(c2ccc(Br)cc2)C(=O)N1c1ccc(Br)cc1 [Example 2-3, (4S,5R)-1,3-bis(4-bromophenyl)-4-methyl-5-phenylimidazolidin-2-one] has an IC50 of 1 to 10 µM. Cc1cccc(C2C(C)N(c3ccc(Cl)cc3)C(=O)N2c2ccc(Cl)cc2)c1 (stereo not drawn) [Example 3] showed an IC50 of 30 to 100 µM. With C[C@H]1[C@H](c2cccc(OC(F)(F)F)c2)N(c2ccc(Cl)cc2)C(=O)N1c1ccc(Cl)cc1 [Example 4-1, (4S,5S)-1,3-bis(4-chlorophenyl)-4-methyl-5-(3-(trifluoromethoxy)phenyl)imidazolidin-2-one] the IC50 was 10 to 30 µM. Work on C[C@@H]1[C@@H](c2cccc(OC(F)(F)F)c2)N(c2ccc(Cl)cc2)C(=O)N1c1ccc(Cl)cc1 [Example 4-2, (4R,5R)-1,3-bis(4-chlorophenyl)-4-methyl-5-(3-(trifluoromethoxy)phenyl)imidazolidin-2-one] yielded an IC50 of 10 to 30 µM. With C[C@@H]1[C@@H](c2cccc(C#N)c2)N(c2ccc(Cl)cc2)C(=O)N1c1ccc(Cl)cc1 [Example 5-1, 3-((4R,5R)-1,3-bis(4-chlorophenyl)-5-methyl-2-oxoimidazolidin-4-yl)benzonitrile] the IC50 was 10 to 30 µM. Molecule C[C@H]1[C@H](c2cccc(C#N)c2)N(c2ccc(Cl)cc2)C(=O)N1c1ccc(Cl)cc1 [Example 5-2, 3-((4S,5S)-1,3-bis(4-chlorophenyl)-5-methyl-2-oxoimidazolidin-4-yl)benzonitrile] has an IC50 of 10 to 30 µM. Molecule CC1(C)[C@@H](c2cccc(C(F)(F)F)c2)N(c2ccc(Cl)cc2)C(=O)N1c1ccc(Cl)cc1 [Example 6-1, (R)-1,3-bis(4-chlorophenyl)-4,4-dimethyl-5-(3-(trifluoromethyl)phenyl)imidazolidin-2-one] has an IC50 of 10 to 30 µM. CC1(C)[C@H](c2cccc(C(F)(F)F)c2)N(c2ccc(Cl)cc2)C(=O)N1c1ccc(Cl)cc1 [Example 6-2, (S)-1,3-bis(4-chlorophenyl)-4,4-dimethyl-5-(3-(trifluoromethyl)phenyl)imidazolidin-2-one] showed an IC50 of under 1 µM. For CC1(C)C(c2cccc(C(F)(F)F)c2)N(c2ccc(Cl)cc2)C(=O)N1c1ccc(Cl)cc1 (stereo not drawn) [Example 6], the IC50 was under 1 µM. Work on CC1(C)[C@@H](c2cccc(OC(F)(F)F)c2)N(c2ccc(Cl)cc2)C(=O)N1c1ccc(Cl)cc1 [Example 7-1, (R)-1,3-bis(4-chlorophenyl)-4,4-dimethyl-5-(3-(trifluoromethoxy)phenyl)imidazolidin-2-one] yielded an IC50 of 1 to 10 µM. In the case of CC1(C)[C@H](c2cccc(OC(F)(F)F)c2)N(c2ccc(Cl)cc2)C(=O)N1c1ccc(Cl)cc1 [Example 7-2, (S)-1,3-bis(4-chlorophenyl)-4,4-dimethyl-5-(3-(trifluoromethoxy)phenyl)imidazolidin-2-one], the IC50 is reported as under 1 µM. For CC1(C)C(c2cccc(OC(F)(F)F)c2)N(c2ccc(Cl)cc2)C(=O)N1c1ccc(Cl)cc1 (stereo not drawn) [Example 7], the IC50 was under 1 µM. For CC1(C)[C@@H](c2cccc(Cl)c2)N(c2ccc(Cl)cc2)C(=O)N1c1ccc(Cl)cc1 [Example 8-1, (R)-5-(3-chlorophenyl)-1,3-bis(4-chlorophenyl)-4,4-dimethylimidazolidin-2-one], the IC50 was 10 to 30 µM. Molecule CC1(C)[C@H](c2cccc(Cl)c2)N(c2ccc(Cl)cc2)C(=O)N1c1ccc(Cl)cc1 [Example 8-2, (S)-5-(3-chlorophenyl)-1,3-bis(4-chlorophenyl)-4,4-dimethylimidazolidin-2-one] has an IC50 of under 1 µM. With CC1(C)C(c2cccc(Cl)c2)N(c2ccc(Cl)cc2)C(=O)N1c1ccc(Cl)cc1 (stereo not drawn) [Example 8] the IC50 was under 1 µM.

Reference: patent US20190134005A1 (BioMarin Pharmaceutical Inc., priority 2016, published 2019)
